# Several values for one entry are separate records, joined by “and”; a condition that tells them apart may be missing. Equal entries are not always repeated.
# T1: UGT2B7 (Homo sapiens, UniProt P16662)
# T1 sequence (P16662 24-529): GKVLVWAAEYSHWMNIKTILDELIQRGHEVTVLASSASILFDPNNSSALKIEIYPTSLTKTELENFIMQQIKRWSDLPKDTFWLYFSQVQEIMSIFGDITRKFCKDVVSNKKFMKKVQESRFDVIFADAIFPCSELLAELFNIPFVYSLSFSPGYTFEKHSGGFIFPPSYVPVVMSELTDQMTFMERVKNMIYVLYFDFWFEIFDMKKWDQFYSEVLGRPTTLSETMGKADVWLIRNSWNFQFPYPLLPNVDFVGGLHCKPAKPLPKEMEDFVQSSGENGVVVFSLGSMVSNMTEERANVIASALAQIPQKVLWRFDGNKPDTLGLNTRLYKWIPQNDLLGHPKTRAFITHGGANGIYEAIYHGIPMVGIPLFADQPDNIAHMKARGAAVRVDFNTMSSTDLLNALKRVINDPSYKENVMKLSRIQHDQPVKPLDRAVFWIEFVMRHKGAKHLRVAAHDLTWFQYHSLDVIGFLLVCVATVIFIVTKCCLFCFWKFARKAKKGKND
# T2: UGT1A8 (Homo sapiens, UniProt Q9HAW9)
# T2 sequence (Q9HAW9 26-530): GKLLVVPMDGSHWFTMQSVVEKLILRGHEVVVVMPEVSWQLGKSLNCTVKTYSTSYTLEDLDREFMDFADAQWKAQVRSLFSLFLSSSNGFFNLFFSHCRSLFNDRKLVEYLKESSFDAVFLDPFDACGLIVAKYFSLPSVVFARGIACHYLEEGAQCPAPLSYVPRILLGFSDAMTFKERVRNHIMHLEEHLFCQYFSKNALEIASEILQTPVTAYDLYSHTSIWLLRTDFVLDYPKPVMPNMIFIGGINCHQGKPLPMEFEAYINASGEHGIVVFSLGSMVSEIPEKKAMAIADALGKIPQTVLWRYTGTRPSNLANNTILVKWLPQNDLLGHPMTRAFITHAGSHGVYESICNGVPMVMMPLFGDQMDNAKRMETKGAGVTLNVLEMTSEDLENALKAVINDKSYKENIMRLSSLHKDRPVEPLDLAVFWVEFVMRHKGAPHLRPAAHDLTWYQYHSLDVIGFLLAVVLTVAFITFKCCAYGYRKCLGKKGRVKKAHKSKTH
# T3: UGT1A3 (Homo sapiens, UniProt P35503)
# T3 sequence (P35503 29-534): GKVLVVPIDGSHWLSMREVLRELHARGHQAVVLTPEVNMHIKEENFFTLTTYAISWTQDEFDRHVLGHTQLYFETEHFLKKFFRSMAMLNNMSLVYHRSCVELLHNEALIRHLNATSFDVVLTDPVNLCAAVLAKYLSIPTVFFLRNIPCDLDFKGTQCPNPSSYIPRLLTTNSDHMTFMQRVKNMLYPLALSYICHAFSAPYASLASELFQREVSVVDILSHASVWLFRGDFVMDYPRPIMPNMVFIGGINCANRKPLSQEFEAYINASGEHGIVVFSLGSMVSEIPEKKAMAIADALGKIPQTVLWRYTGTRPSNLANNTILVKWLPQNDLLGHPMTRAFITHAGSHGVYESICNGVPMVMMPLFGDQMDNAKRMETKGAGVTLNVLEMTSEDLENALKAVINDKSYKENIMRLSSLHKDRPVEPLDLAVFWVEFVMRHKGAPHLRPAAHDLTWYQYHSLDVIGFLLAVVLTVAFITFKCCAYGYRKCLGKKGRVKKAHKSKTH
# T4: UGT1A4 (Homo sapiens, UniProt P22310)
# T4 sequence (P22310 29-534): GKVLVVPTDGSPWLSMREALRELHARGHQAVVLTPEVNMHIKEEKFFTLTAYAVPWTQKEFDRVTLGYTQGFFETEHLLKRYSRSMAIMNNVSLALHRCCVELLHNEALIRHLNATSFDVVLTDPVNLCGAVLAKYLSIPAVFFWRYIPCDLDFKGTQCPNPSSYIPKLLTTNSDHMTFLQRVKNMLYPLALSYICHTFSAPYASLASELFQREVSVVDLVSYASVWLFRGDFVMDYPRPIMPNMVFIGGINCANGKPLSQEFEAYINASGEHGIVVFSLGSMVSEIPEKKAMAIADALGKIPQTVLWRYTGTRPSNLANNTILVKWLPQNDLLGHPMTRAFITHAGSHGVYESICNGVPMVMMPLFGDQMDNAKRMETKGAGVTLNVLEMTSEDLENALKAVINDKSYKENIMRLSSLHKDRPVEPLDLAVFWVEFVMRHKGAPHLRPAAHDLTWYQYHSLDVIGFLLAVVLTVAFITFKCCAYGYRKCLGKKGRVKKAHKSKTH
# B1: UGT1A4 (Homo sapiens) (protein)
# chain: T4 sequence (P22310 29-534)
# B2: UGT1A3 (Homo sapiens) (protein)
# chain: T3 sequence (P35503 29-534)
# B3: UGT1A8 (Homo sapiens) (protein)
# chain: T2 sequence (Q9HAW9 26-530)
# Experiments:
# [1] = biological target: T1, UGT2B7; conditions: ref Veal et al., 1995; Barbier et al., 2000; cited from earlier work
# [2] = test system: human intestinal microsomes (HIM)
# [3] = biological target: T2, UGT1A8; assay: in vitro; conditions: UGT1A8 Supersomes, pH 7.5, probe aprepitant […] (Km), AP-G formation
# [4] = biological target: T3, UGT1A3; assay: Inhibition of aprepitant glucuronidation by UGT specific inhibitors in UGT1A3; conditions: UGT1A3 Supersomes, pH 7.5, probe aprepitant 5 µM, AP-G formation
# [5] = test system: human liver microsomes (HLM); assay: Inhibition of aprepitant glucuronidation by UGT specific inhibitors in HLM; format: in vitro ADME; conditions: for inhibition of aprepitant glucuronidation: aprepitant at 5 µM and at the Kms
# [6] = biological target: T3, UGT1A3; assay: in vitro; conditions: UGT1A3 Supersomes, pH 7.5, probe aprepitant […] µM (Km), AP-G formation
# [7] = biological target: T4, UGT1A4; assay: Inhibition of aprepitant glucuronidation by UGT specific inhibitors in UGT1A4; conditions: UGT1A4, aprepitant 5 µM, 200 µM hecogenin
# [8] = biological target: T4, UGT1A4
# [9] = substrate: C[C@@H](O[C@H]1OCCN(Cc2n[nH]c(=O)[nH]2)[C@H]1c1ccc(F)cc1)c1cc(C(F)(F)F)cc(C(F)(F)F)c1; assay: not read; conditions: mean ± SE, pH 7.5, 37.0 °C
# [10] = aprepitant 5 µM, 1000 µM sulfinpyrazone or 200 µM hecogenin
molecule,measurement,setting,value
"Cc1cn([C@H]2C[C@H](N=[N+]=[N-])[C@@H](CO)O2)c(=O)[nH]c1=O [AZT, 3’-azido-3’-deoxythymidine]",share of glucuronidation catalyzed by UGT2B7,[1],60–70%
O=C(O)Cc1ccccc1Nc1c(Cl)cccc1Cl [diclofenac],inhibition,[2],100%
same,"inhibition at 60 min, 500 µM",[3],66.7%
O=C1C(CC[S+]([O-])c2ccccc2)C(=O)N(c2ccccc2)N1c1ccccc1 (stereo not shown) [sulfinpyrazone],"inhibition at 60 min, 1000 µM",[4],100%
same,Percent inhibition of aprepitant glucuronidation,[5]; [10],22.2%
same,Percent inhibition of aprepitant glucuronidation,"[5]; aprepitant […] µM (Km for UGT1A3), 1000 µM sulfinpyrazone",22.1%
same,inhibition of aprepitant glucuronidation,[5],< 25%
same,"inhibition at 60 min, 1000 µM",[6],100%
hecogenin,Percent inhibition of aprepitant glucuronidation,[7],100%
same,Percent inhibition of aprepitant glucuronidation,[5]; [10],100%
same,Percent inhibition of aprepitant glucuronidation,"[5]; aprepitant […] (Km for UGT1A4), 200 µM hecogenin",80.8%
same,inhibition of aprepitant glucuronidation,[5],high inhibition
same,inhibition,[8],83.9%
B1,K0.5,"[9]; other: UGT1A4, Michaelis-Menten",161.6 ± 15.6 µM and 162 ± 16 µM
B2,K0.5,"[9]; other: UGT1A3, Michaelis-Menten",69.4 ± 1.9 µM and 69 ± 2 µM
B3,K0.5,"[9]; other: UGT1A8, Hill equation (S50)",197.1 ± 28.2 µM and 197 ± 28 µM

# Reference: paper PMC4844176 (Xenobiotica; the fate of foreign compounds in biological …, 2015)
